Assay results published in publication PMC8901748, “A novel prostaglandin E receptor 4 (EP4) small molecule antagonist induces articular cartilage regeneration” (Cell Discovery, 2022).
Where two headings read alike, the source gives them in different places.

What was measured:
[1] = tested on: zebrafish embryos; test: Zebrafish embryo toxicity assay; parameters: Mortality / Deformities / Hatching: dose or concentration left out as unconfirmed; conditions: for Mortality: zebrafish embryos; for Deformities / Hatching: zebrafish
Protocol: A breeding stock of zebrafish at the age of 6–24 months is used for egg production. Fertilized eggs were collected and viable eggs were transferred to the 12-well plate at 26 °C. Fertilized eggs between the 4-cell and 128-cell stages be used for the toxicity test, with ten fertilized eggs per concentration and three replicates of each concentration, a total of 30 eggs for each concentration. […] DMSO was added as vehicle control. Hatching, morphological abnormalities and survival were assessed 24 and 72 h of post-fertilization (dpf) in zebrafish exposed to the chemicals.

[2] = tested on: primary articular chondrocytes; test: Cell viability by CCK-8 assay; assay type: cell-based, mouse; conditions: 72 h, read-out: IC50 (cell viability, toxicity in chondrocytes)
Protocol: The cell viability was evaluated by CCK-8 assay (Dojindo Molecular Technologies). Primary chondrocytes were plated in the 96-well plates and treated with the EP4 antagonists or DMSO for 72 h. A total of 10 μl CCK-8 was added to each well, the cells were incubated in the presence of CCK-8 for 2–3 h. The optical density (OD) of each well at 450 nm was recorded on a Microplate Reader (SPECTRA MAX190). The absorbance values were normalized by subtracting blank values of […]. The cell viability (% of control) is calculated as the percentage of (ODtest − ODblank)/(ODcontrol − ODblank). The 50% inhibitory concentration (IC50) was calculated with GraphPad Prism software using the sigmoidal dose-response function.
ATDC5 cell line was purchased from Riken BioResource Center (Tsukuba, Japan) and grown in a 1:1 mixture of DMEM/F12 medium (Corning, 10-092-CVR) supplemented with 5% fetal bovine serum (Gibco, 10099, USA) and 1% penicillin-streptomycin solution (Life Technologies). Cells were maintained at 37 °C under 5% CO2. Primary chondrocytes were obtained from knee joint cartilage of newborn mice. Knee joints were dissected from the tibia plateau and femoral condyle articular cartilage of mouse pups and digested in 0.1% collagenase type II (Sigma) overnight at 37 °C and chondrocytes were harvested by centrifugation. Primary chondrocytes were cultured at a density of 5 × 10^3 cells per ml at 37 °C with 5% CO2. DMEM/F12 medium with 10% fetal bovine serum (FBS) and 1% penicillin–streptomycin was used to culture the primary chondrocytes. Chondrogenic differentiation were induced with chondrogenic medium, which contains insulin-transferrin-selenium (ITS) (Sigma, I3146), 10 ng/ml TGF-β3 (PEPROTECH, 100-36E, USA), 100 nM Dexamethasone (Sigma, D4902), 50 μg/ml VC (Sigma), 1 mM sodium pyruvate (Sigma) and 40 μg/ml proline (Sigma), and/or treatment with rmIL-1β (R&D, 401-ML/CF), TNFα (PEPROTECH, 300-01A-50) in DMEM/F12 for indicated days. Western blotting was performed according to standard protocols. Antibodies used were: rabbit anti-Mmp3 (1:1000, HuaBio), rabbit anti-Mmp13 (1:500, abcam, ab39012), rabbit anti-p-CREB (1:2000, Cell Signaling Technology, 87G3), rabbit anti-CREB (1:2000, Cell Signaling Technology, 48H2), mouse anti-GAPDH (1:5000; Sigma-Aldrich, G8795), rabbit anti-Col2 (Abcam, Ab34712), rabbit anti-STAT3 (1:2000; Abcam, ab68153), rabbit anti-p-STAT3 (Y705) (1:2000; Abcam, ab76315), rabbit anti -p65 (1:1000; CST, 3034), rabbit anti-p-p65 (1:1000; CST, 3033), and rabbit anti-IκBα (1:1000; Abways, CY5026).

[3] = tested on: CRE-Luc in ATDC5 cells; test: CRE-Luc luciferase reporter assay; assay type: cell-based, mouse; conditions: for CRE-Luc activity: 12 hr
Protocol: Six firefly luciferase reporters were used in the Luciferase assay, including CRE-Luc (PathDetect CRE cis-Reporting System; Stratagene, La Jolla CA) driven by a basic promoter (TATA box) plus four repeats of CRE; Sox9 promoter-Luc contains human SOX9 proximal promoter region (−1034 bp to +67 bp)[45]; 4 × 48-p89-Luc, mouse Col2a1 minimal promoter. AP-1-Luc, Nf-κb-Luc, STAT-Luc were obtained from Stratagene. Chondrocytes were cultured in 24-well plates and 300 ng firefly luciferase reporter constructs were transiently transfected using transfection reagent TransExellent-DNA (Cenji Biotech Inc, China) following manufacturer’s instruction, and 15 ng of the Copia-Renilla luciferase reporter was co-transfected as a normalization control. […] The Dual-Luciferase measurements were performed in triplicate using the Luciferase assay kit (Promega) and a LUMIstar Omega luminometer (BMG Labtech, Mornington, Australia).

[4] = tested on: human articular cartilage explants; test: Human articular cartilage explant culture (S.O. staining, DMMB assay, qRT-PCR, immunohistochemistry); assay type: cell-based
Text: Human articular cartilage explants of OA patients undergoing total knee replacement surgery were collected (3 mm × 3 mm), with the approval of the Human Ethics Committee of Shanghai Sixth People’s Hospital (2021-048). The full thickness cartilage tissue samples were harvested from tibia plateau avoiding subchondral bone. We control the quality of the explants according to the principle mentioned below. (1) The human articular cartilage explants were harvested from the relatively intact region of the tibia plateau. (2) The explants from different patients were cut from the same position of tibia plateau avoiding subchondral bone. (3) The explants were cut in the size of 3 mm × 3 mm for the DMMB assay and the S.O. staining. (4) To avoid inter-patient and intra-patient sample heterogeneous, explants used within the same drug experiment (vehicle and treatment) must be collected in locations in close proximity and from the same patient. Each explant in the groups that treated with the same drug was from the same patient. The cartilage explants for Safranin-O/Fast-green (S.O.) staining and immunofluorescence were fixed in 4% paraformaldehyde (PFA) (wt/vol) overnight at 4 °C, embedded in paraffin, sliced (7 μm) and mounted on positively charged slides. The cartilage explants (3 mm × 3 mm) for DMMB assay and S.O. staining were harvested and placed in 24-well plates and cultured in 1 ml of serum-free F12 culture media for 24 h. n ≥ 4 patients were assessed. The media was then replaced with F12 culture media containing serum, added 1 ng/ml IL-1β, Celecoxib, Grapiprant, HL-43, and explants were cultured for a further 7 days. The culture media was collected for the release of glycosaminoglycans. To quantify GAGs, media were mixed with DMMB in formate buffer and absorbance at 535 nm was determined using a Spectramax plate reader (Molecular Devices, Sunnyvale, CA). […] We calculated the proteoglycan staining area using Image J with a region of interest of a 1 × 1 mm square, drawn at the edge of the cartilage surface under 10× objective. […]

[5] = 72 hpf, in comparison to Celecoxib and Grapiprant

Row | Structure (SMILES) | Mortality rate, ranking ([1]; 24 hpf, in comparison to Celecoxib and Grapiprant) | Deformities rate, ranking [1, 5] | Hatching rate, ranking [1, 5] | Mortality ([1]; 24hpf, 0.3, n=30) | Mortality ([1]; 24hpf, 1, n=30) | Mortality ([1]; 24hpf, 3, n=30) | Deformities ([1]; 72hpf, 0.3, n=30) | Hatching ([1]; 72hpf, 0.3, n=30) | Deformities ([1]; 72hpf, 1, n=30) | Hatching ([1]; 72hpf, 1, n=30) | Deformities ([1]; 72hpf, 3, n=30) | Hatching ([1]; 72hpf, 3, n=30) | IC50 [2] [µM] | CRE-Luc reporter activity under pro-inflammatory conditions ([3]; 2 ng/ml IL-1β or 100 nM PGE2, 6 h) | CRE-Luc activity [3] | Percentage area of proteoglycan by S.O. staining ([4]; human OA cartilage explants, 1 week) | Immunohistochemistry of ACAN, SOX9, MMP13, COLX ([4]; human cartilage explants) | Expression of anabolic factors (COL2A1, ACAN, SOX9) and catabolic factor (MMP13), qRT-PCR ([4]; human explants, 1 ng/ml IL-1β, 24 h, Celecoxib 10 μM, Grapiprant and HL-43 30 μM) | IC50 ([2]; Mus musculus, Chondrocyte) [µM]
1 | C[C@H](NC(=O)c1c(-c2ccccc2)nnn1CCOc1ccc(F)cc1)c1ccc(C(=O)O)cc1 [HL-43] | lowest mortality rate | lowest deformities rate | highest hatching rate | 0/30 | 3/30 | 6/30 | 2/30 | 28/30 | 2/30 | 26/30 | 4/30 | 23/30 | > 1000 | dose-dependently activated | increase CRE-Luc activity in a dose dependent manner | increased with HL-43 treatment in a dose-dependent manner | inducted anabolic factors (ACAN and SOX9), and suppressed catabolic factor (MMP13), and hypertrophic marker (COLX) | best efficacy | 
2 | CCc1nc2c(C)nc(C)cc2n1-c1ccc(CCNC(=O)NS(=O)(=O)c2ccc(C)cc2)cc1 [Grapiprant] |  |  |  | 4/30 | 14/30 | 13/30 | 4/30 | 24/30 | 3/30 | 16/30 | 4/30 | 17/30 |  |  | increase CRE-Luc activity in a dose dependent manner |  |  |  | 113
